Results published in patent US4511574A, “N-(4-Phenyl-2-thiazolyl)carbamate derivatives” (Mitsui Toatsu Kagaku Kabushiki Kaisha, priority 1981, dated 1985).
Counter-ions that a name gives are not always drawn.

Assays:
[1] = test system: delayed hypersensitivity induced by picryl chloride; assay: Reinforcement test of delayed hypersensitivity (picryl chloride); type: in vivo, ICR male mice; settings: 50 mg/Kg oral, simultaneously with sensitization; 24 hours after challenging; average of both pinnae of eight mice; * P<0.05, ** P<0.01 vs control
Excerpt: This feature will hereinafter be described by way of test examples. Various test systems using animals have been routinely adopted for the determination of immunomodulating activity.
The delayed hypersensitivity induced on a mouse when picryl chloride(2-chloro-1,3,5-trinitrobenzene) is applied onto the skin of the mouse is known as a typical cellular immunity.
This test system was used for the reinforcement tests of the delayed hypersensitivity.
Groups of eight ICR male mice, each having a body weight of about 30 g or so, were used for the test.
Sensitization was effected by applying a 3% solution of picryl chloride in a 4/1 mixture of olive oil and acetone onto the shaved abdomen of each of the mice.
Simultaneously with the sensitization, a solution or suspension of a compound according to this invention dissolved or suspended in a 0.2% solution of carboxymethyl cellulose in a physiological saline was orally administered to the mouse at a dose of 50 mg per Kg of its body weight. To each mouse of a control group, a 0.2% carboxymethylcellulose solution in a physiological saline was similarly administered.
The delayed hypersensitivity was induced 7 days after the sensitization by pinching each of the pinnae of each mouse with a pair of forceps whose tip portions were wrapped with a felt impregnated with a 1% solution of picryl chloride in olive oil and coating the pinnae with the solution. The thickness of each pinna was measured before the challenging and 24 hours after the challenging and the ratio of increase of the thickness (average value of both of the pinnae of the eight mice) is shown in Table 1.
For comparison, a similar test was carried out using Levamisole hydrochloride.
F.t tests were carried out on the thus-obtained test results.

[2] = test system: adjuvant arthritis (Mycobacterium tuberculosis adjuvant); assay: Adjuvant arthritis test; type: in vivo, SD male rats; settings: 5 mg/Kg subcutaneous, 9 times; left hind leg; average value from 16th to 20th days; * P<0.05, ** P<0.01, *** P<0.001 vs control
Excerpt: Next, a result of tests made on immuno-modulating activity in the adjuvant arthritis test is shown.
The adjuvant arthritis in rats caused by the injection of a Mycobacterium tuberculosis adjuvant is often utilized for a model test of chronic rheumatoid arthritis in the human.
The mechanism of manifestation of this disease has not completely been elucidated, but it is known that the cellular immunity plays an important role. The immuno-modulating activity of the compounds according to this invention was investigated in accordance with this known adjuvant arthritis test.
8-Week-old SD male rats were used for the test. In 0.1 ml of fluid paraffin, 0.4 mg of dry dead cells of Mycobacterium tuberculosis were suspended, and the suspension was injected under the heel skin of the right hind leg of each rat. Each of the compounds according to this invention was subcutaneously administered 9 times in total before and after the injection of the adjuvant. Each of the compounds of the present invention was dissolved or suspended in a 0.2% solution of carboxymethylcellulose in physiological saline and administered to each rat at a dose of 5 mg per Kg of the body weight. The swollen volume of the left hind leg was measured during the period extending from the day of injection to the day of completion of the test, and the swelling ratio was calculated. For comparison, a similar test was conducted using Levamisole hydrochloride. F.t tests were carried out on the test results obtained.

ddY male mice = assay: Acute toxicity test through oral administration; type: in vivo; settings: five ddY male mice per group, watched 7 days
Excerpt: TEST EXAMPLE 3 (ACUTE TOXICITY TEST THROUGH ORAL ADMINISTRATION)
Test Procedures: To each of a group of five ddY male mice, was orally administered a medicine dissolved or suspended in physiological saline. They were watched for 7 days after the administration and an estimated LD50 value was obtained.

Row | SMILES | Ratio of Increase of Pinna Thickness [1] | Swell suppression ratio to control group [2] | estimated LD50 value (ddY male mice)
1 | c1ccc([C@H]2CN3CCSC3=N2)cc1 [Levamisole.HCl, Levamisole hydrochloride, reference compound] | 31.2% | 19.8% | 200 to 300 mg/kg
2 | O=C(Nc1nc(-c2ccc([N+](=O)[O-])cc2)cs1)OCC(Cl)(Cl)Cl [drawing 5] | 36.1% | – | –
3 | CS(=O)(=O)c1ccc(-c2csc(NC(=O)OCC(Cl)(Cl)Cl)n2)cc1 [drawing 6] | 37.8% | – | –
4 | CCOC(=O)Nc1nc(-c2ccc([N+](=O)[O-])cc2)cs1 [drawing 7] | 34.8% | – | –
5 | CCOC(=O)Nc1nc(-c2ccc(S(C)(=O)=O)cc2)cs1 [drawing 8] | 36.0% | – | –
6 | O=C(Nc1nc(-c2ccc([N+](=O)[O-])cc2)cs1)OCC(Cl)(Cl)Cl [drawing 9] | – | 45.0% | –
7 | CS(=O)(=O)c1ccc(-c2csc(NC(=O)OCC(Cl)(Cl)Cl)n2)cc1 [drawing 10] | – | 30.0% | –
8 | CCOC(=O)Nc1nc(-c2ccc([N+](=O)[O-])cc2)cs1 [drawing 11] | – | 71.4% | –
9 | CCOC(=O)Nc1nc(-c2ccc(S(C)(=O)=O)cc2)cs1 [drawing 12] | – | 47.6% | –
